Experimental data published in patent publication US20240390282A1, “DRUG-LOADED LIPOSOMES AND USES THEREOF IN TREATING BIOFILM” (Yeda Research and Development Co. Ltd., priority 2022, published 2024).

Legend:
[1] = system: PA14-biofilms; assay: Bacterial viability in biofilms by LIVE/DEAD staining; type: cell-based, Pseudomonas aeruginosa; conditions: PA14 biofilm; free SMX 1.5 mg/mL
Description: Determination of bacterial viability in biofilms by LIVE/DEAD™ staining: PA14-biofilms were developed on 8 Well p-Slide (ibidi GmbH, Germany). 150 μL of the inoculum was incubated in a humidified incubator for 24 hours at 37° C. without shaking. After 24 hours, the fully formed biofilm was gently washed twice with PBS. 160 μL of liposomal suspension or BM2G medium was added to each well, and subsequently, the samples were incubated at 37° C. for 4 hours. Each well was then washed with PBS, and a second dose (170 μL) of antibacterial treatment was applied for 4 hours with incubation at 37° C. Subsequently, biofilm was washed with 180 μL of PBS buffer, and bacteria cells were stained using a BacLight™ Bacterial Viability Kit@ (Thermo Fisher Scientific™, USA). Live bacterial cells were stained with SYTO™ 9 dye (ex: 486/em: 501) and dead cells were stained with propidium iodide (PI) dye (λEx: 535/λEm: 617), with dyes mixed in 1:1 ratio. […] Later, wells were washed twice with PBS, and images of biofilm were acquired using confocal fluorescence microscopy. Cell viability quantification was performed using ImageJ software v1.52i (NIH, USA). Confocal pictures were acquired using a confocal laser scanning fluorescence microscope LSM700 (ZEISS, Germany). […] Images were recorded in brightfield mode and in confocal mode using 488 excitation and 561 excitation laser channels. […]

[2] = cited from earlier work

Cc1cc(NS(=O)(=O)c2ccc(N)cc2)no1 [Sulfamethoxazole (SMX), Sulfamethoxazole]
dead cells (red loci) in words [1]: significant increase in the number of red loci

O=c1oc2c(O)c(O)cc3c(=O)oc4c(O)c(O)cc1c4c23 [Ellagic acid (EA), Ellagic acid]
LogP [2]: 1.59-2.32 | pKa [2]: 5.8
